Results published in patent US20230157296A1, “METHODS OF REDUCING FUSARIUM CONTAMINATION” (Taminco BV, priority 2020, published 2023).

Tested on: F. oxysporum f. sp. cubense (Foc TR4)
Experiment: Panama disease analysis of soil samples after metam sodium field injection
Format: in vivo, Fusarium oxysporum f. sp. Cubense Tropical Race 4
Procedure: Metam Sodium Application. Metam sodium 510 SL (equivalent to 42% w/w) was applied to soil at the following doses: 0 liters per hectare (L/ha), 750 L/ha, 1500 L/ha, 2250 L/ha, 3000 L/ha.
Prior to injection, soil was prepared using a rototiller to break the soil structure from 0 cm to 80 cm deep, allowing for the smooth and even injection application by an injection machine. The soil was then leveled and made uniform, and the metam sodium was applied at two depths: 30 cm and 60 cm, using injection methods. The temperature was at a minimum of 10° C. and soil humidity was between 50 and 60% holding capacity, allowing the applied product to transform from metam sodium (liquid) to MITC (gas).
The application was made using an injection machine wherein the machine lowered shanks and began moving forward such that the shanks lowered to a depth of 60 cm and injectors applied the metam sodium into the soil. When the injection at 60 cm was complete, the process was repeated for the entire field at 30 cm. The treated soil in the field was then sealed using a packer roller (which was part of the injection machinery, located at the back end of the machine), after each application.
Soil Analysis. Soil samples were obtained at 20, 40, and 60 cm before application and every 24 hours beginning 48 hours after application, for seven days.
Plant Pathology Analysis. Soil samples used for Panama Disease and nematode analyses were aseptically isolated in culture medium and incubated for seven days at room temperature. Organisms were identified as follows: 20 grams of composite soil sample was diluted with 40 mL distilled water (dH2O); 1 drop of Tween 20 detergent was added, and the sample mixed. A 1 mL aliquot was taken from the solution and diluted with 9 mL dH2O; three further serial dilutions were made. From each dilution, 100 µL were spread on solid Komada growth medium (Sun et al., Phytopathology 68: 1672-1673, 1978). Growth could be seen 7 days after inoculation.

CNC(=S)[S-].[Na+] [metam sodium, sodium N-methyldithiocarbamate]
Panama Disease F. oxysporum f. sp. cubense (Day 3, 40 cm, T5 3000 L/ha): - | Panama Disease F. oxysporum f. sp. cubense (Day 3, 60 cm, T2 750 L/ha): - | Panama Disease F. oxysporum f. sp. cubense (Day 3, 60 cm, T3 1500 L/ha): - | Panama Disease F. oxysporum f. sp. cubense (Day 3, 60 cm, T4 2250 L/ha): - | Panama Disease F. oxysporum f. sp. cubense (Day 3, 60 cm, T5 3000 L/ha): - | Panama Disease F. oxysporum f. sp. cubense (Day 4, 20 cm, T2 750 L/ha): - | Panama Disease F. oxysporum f. sp. cubense (Day 4, 20 cm, T3 1500 L/ha): - | Panama Disease F. oxysporum f. sp. cubense (Day 4, 20 cm, T4 2250 L/ha): - | Panama Disease F. oxysporum f. sp. cubense (Day 4, 20 cm, T5 3000 L/ha): - | Panama Disease F. oxysporum f. sp. cubense (Day 4, 40 cm, T2 750 L/ha): - | Panama Disease F. oxysporum f. sp. cubense (Day 4, 40 cm, T3 1500 L/ha): - | Panama Disease F. oxysporum f. sp. cubense (Day 4, 40 cm, T4 2250 L/ha): - | Panama Disease F. oxysporum f. sp. cubense (Day 4, 40 cm, T5 3000 L/ha): - | Panama Disease F. oxysporum f. sp. cubense (Day 4, 60 cm, T2 750 L/ha): - | Panama Disease F. oxysporum f. sp. cubense (Day 4, 60 cm, T3 1500 L/ha): - | Panama Disease F. oxysporum f. sp. cubense (Day 4, 60 cm, T4 2250 L/ha): - | Panama Disease F. oxysporum f. sp. cubense (Day 4, 60 cm, T5 3000 L/ha): - | Panama Disease F. oxysporum f. sp. cubense (Day 5, 20 cm, T2 750 L/ha): - | Panama Disease F. oxysporum f. sp. cubense (Day 5, 20 cm, T3 1500 L/ha): - | Panama Disease F. oxysporum f. sp. cubense (Day 5, 20 cm, T4 2250 L/ha): - | Panama Disease F. oxysporum f. sp. cubense (Day 5, 20 cm, T5 3000 L/ha): - | Panama Disease F. oxysporum f. sp. cubense (Day 5, 40 cm, T2 750 L/ha): - | Panama Disease F. oxysporum f. sp. cubense (Day 5, 40 cm, T3 1500 L/ha): - | Panama Disease F. oxysporum f. sp. cubense (Day 5, 40 cm, T4 2250 L/ha): - | Panama Disease F. oxysporum f. sp. cubense (Day 5, 40 cm, T5 3000 L/ha): - | Panama Disease F. oxysporum f. sp. cubense (Day 5, 60 cm, T2 750 L/ha): - | Panama Disease F. oxysporum f. sp. cubense (Day 5, 60 cm, T3 1500 L/ha): - | Panama Disease F. oxysporum f. sp. cubense (Day 5, 60 cm, T4 2250 L/ha): - | Panama Disease F. oxysporum f. sp. cubense (Day 5, 60 cm, T5 3000 L/ha): - | Panama Disease F. oxysporum f. sp. cubense (Day 6, 20 cm, T2 750 L/ha): - | Panama Disease F. oxysporum f. sp. cubense (Day 6, 20 cm, T3 1500 L/ha): - | Panama Disease F. oxysporum f. sp. cubense (Day 6, 20 cm, T4 2250 L/ha): - | Panama Disease F. oxysporum f. sp. cubense (Day 6, 20 cm, T5 3000 L/ha): - | Panama Disease F. oxysporum f. sp. cubense (Day 6, 40 cm, T2 750 L/ha): - | Panama Disease F. oxysporum f. sp. cubense (Day 6, 40 cm, T3 1500 L/ha): - | Panama Disease F. oxysporum f. sp. cubense (Day 6, 40 cm, T4 2250 L/ha): - | Panama Disease F. oxysporum f. sp. cubense (Day 6, 40 cm, T5 3000 L/ha): - | Panama Disease F. oxysporum f. sp. cubense (Day 6, 60 cm, T2 750 L/ha): - | Panama Disease F. oxysporum f. sp. cubense (Day 6, 60 cm, T3 1500 L/ha): - | Panama Disease F. oxysporum f. sp. cubense (Day 6, 60 cm, T4 2250 L/ha): - | Panama Disease F. oxysporum f. sp. cubense (Day 6, 60 cm, T5 3000 L/ha): - | Panama Disease F. oxysporum f. sp. cubense (Day 7, 20 cm, T2 750 L/ha): - | Panama Disease F. oxysporum f. sp. cubense (Day 7, 20 cm, T3 1500 L/ha): - | Panama Disease F. oxysporum f. sp. cubense (Day 7, 20 cm, T4 2250 L/ha): - | Panama Disease F. oxysporum f. sp. cubense (Day 7, 20 cm, T5 3000 L/ha): - | Panama Disease F. oxysporum f. sp. cubense (Day 7, 40 cm, T2 750 L/ha): - | Panama Disease F. oxysporum f. sp. cubense (Day 7, 40 cm, T3 1500 L/ha): - | Panama Disease F. oxysporum f. sp. cubense (Day 7, 40 cm, T4 2250 L/ha): - | Panama Disease F. oxysporum f. sp. cubense (Day 7, 40 cm, T5 3000 L/ha): - | Panama Disease F. oxysporum f. sp. cubense (Day 7, 60 cm, T2 750 L/ha): - | Panama Disease F. oxysporum f. sp. cubense (Day 7, 60 cm, T3 1500 L/ha): - | Panama Disease F. oxysporum f. sp. cubense (Day 7, 60 cm, T4 2250 L/ha): - | Panama Disease F. oxysporum f. sp. cubense (Day 7, 60 cm, T5 3000 L/ha): - | soil contamination: Foc TR4 detection (any of the treated groups (750-3000 L/ha), any day post application): No Foc TR4 was detected
